Measured values from DBAASP.
Values after ≈ are worked out from the molar mass of the structure shown.

How the values were obtained:
Experiment in all cases: ≥ marks a high value that may be exact or a test limit, other limits are often not marked, values filed in µg/mL are converted to µM
[1] = system: Acinetobacter baumannii ATCC 19606
[2] = system: Bacillus subtilis ATCC 23857
[3] = system: Enterococcus faecalis ATCC 29212
[4] = system: Escherichia coli ATCC 25922
[5] = system: Klebsiella pneumoniae ATCC 700603
[6] = system: Pseudomonas aeruginosa ATCC 27853
[7] = system: Staphylococcus aureus ATCC 25923
[8] = system: Staphylococcus epidermidis ATCC 12228
Bacillus subtilis 168 = system: Bacillus subtilis 168
Escherichia coli K-12 = system: Escherichia coli K-12
[9] = system: Pseudomonas aeruginosa PAO1
[10] = system: Staphylococcus aureus USA 300
Escherichia coli UB1005 = system: Escherichia coli UB1005
[11] = system: Salmonella enterica subsp. enterica serovar Typhimurium C77-31
[12] = system: Staphylococcus aureus ATCC 29213
Candida albicans = system: Candida albicans
[13] = system: Pseudomonas aeruginosa H103
[14] = system: Salmonella enterica serovar Typhimurium
[15] = system: Staphylococcus epidermidis
[16] = system: Pseudomonas aeruginosa ATCC 9027

Row | MIC [2] | MIC [4] | MIC [5] | MIC [7] | MIC [8] | MIC (Escherichia coli UB1005) | SMILES | further results
1 | ≥ 64 µM | 64 µM (≈ 80.4 µg/mL) | 128 µM (≈ 161 µg/mL) | 64 µM (≈ 80.4 µg/mL) | 8 µM (≈ 10 µg/mL) | – | CC(C)C[C@H](NC(=O)[C@H](Cc1ccccc1)NC(=O)CN)C(=O)N[C@@H](CCCCN)C(=O)N[C@@H](CCCN=C(N)N)C(=O)N[C@@H](Cc1ccccc1)C(=O)N[C@@H](CCCCN)C(=O)N[C@H](C(=O)N[C@@H](CC(C)C)C(=O)N[C@@H](Cc1ccccc1)C(N)=O)[C@@H](C)O [GFLKRFKTLF] | MIC [1]: 128 µM (≈ 161 µg/mL); MIC [3]: 128 µM (≈ 161 µg/mL); MIC [6]: 8 µM (≈ 10 µg/mL)
2 | ≥ 128 µM | 64 µM (≈ 78.5 µg/mL) | 64 µM (≈ 78.5 µg/mL) | 128 µM (≈ 157 µg/mL) | 16 µM (≈ 19.6 µg/mL) | – | CC(C)C[C@H](NC(=O)[C@H](CC(C)C)NC(=O)[C@@H](NC(=O)[C@H](CCCCN)NC(=O)[C@H](Cc1c[nH]c2ccccc12)NC(=O)[C@H](CCCN=C(N)N)NC(=O)[C@H](CCCCN)NC(=O)[C@H](CC(C)C)NC(=O)[C@H](CC(C)C)NC(=O)CN)[C@@H](C)O)C(N)=O [GLLKRWKTLL] | MIC [1]: 256 µM (≈ 314 µg/mL); MIC [3]: 256 µM (≈ 314 µg/mL); MIC [6]: 4 µM (≈ 4.91 µg/mL)
3 | – | – | – | – | – | – | CC(C)C[C@H](NC(=O)[C@H](CC(C)C)NC(=O)[C@H](CCCCN)NC(=O)[C@@H]1CCCN1C(=O)[C@H](CC(C)C)NC(=O)[C@H](CC(C)C)NC(=O)[C@H](CCCCN)NC(=O)[C@H](CC(C)C)NC(=O)[C@H](CC(C)C)NC(=O)[C@H](CO)NC(=O)CNC(=O)[C@H](CC(C)C)NC(=O)[C@@H](N)CC(C)C)C(N)=O [LLGSLLKLLPKLL] | MIC (Bacillus subtilis 168): 3.12 µM (≈ 4.43 µg/mL); MIC (Escherichia coli K-12): 12.5 µM (≈ 17.7 µg/mL); MIC [9]: > 100 µM; MIC [10]: 1.1 µM (≈ 1.57 µg/mL)
4 | – | – | – | – | – | – | CC(C)C[C@H](NC(=O)[C@H](CC(C)C)NC(=O)[C@H](CCCCN)NC(=O)[C@@H]1CCCN1C(=O)[C@H](CC(C)C)NC(=O)[C@H](CC(C)C)NC(=O)[C@H](CCCCN)NC(=O)[C@H](CC(C)C)NC(=O)[C@H](CC(C)C)NC(=O)[C@H](CO)NC(=O)CNC(=O)[C@H](Cc1ccccc1)NC(=O)[C@@H](N)Cc1ccccc1)C(N)=O [FFGSLLKLLPKLL] | MIC (Bacillus subtilis 168): 3.12 µM (≈ 4.64 µg/mL); MIC (Escherichia coli K-12): 12.5 µM (≈ 18.6 µg/mL); MIC [9]: 70.7 µM (≈ 105 µg/mL); MIC [10]: 1.1 µM (≈ 1.64 µg/mL)
5 | – | > 128 µM | – | – | > 128 µM | ≥ 128 µM | CC[C@H](C)[C@H](NC(=O)[C@H](CCCCN)NC(=O)[C@H](CCCCN)NC(=O)[C@H](CC(C)C)NC(=O)[C@H](CCCN=C(N)N)NC(=O)[C@H](CC(=O)O)NC(=O)[C@H](CCCN=C(N)N)NC(=O)[C@@H](NC(=O)[C@H](CCCCN)NC(=O)[C@H](CC(=O)O)NC(=O)[C@H](CCCN=C(N)N)NC(=O)[C@H](CC(C)C)NC(=O)[C@H](CCCN=C(N)N)NC(=O)[C@H](CCCN=C(N)N)NC(=O)[C@H](Cc1ccccc1)NC(=O)[C@@H](N)CCCN=C(N)N)[C@@H](C)O)C(N)=O [RFRRLRDKTRDRLKKI] | MIC [3]: > 128 µM; MIC [11]: ≥ 128 µM; MIC [12]: > 128 µM
6 | – | – | – | 176 µM (≈ 250 µg/mL) | – | ≥ 95.7 µM | CC[C@H](C)[C@H](NC(=O)[C@H](CCCN=C(N)N)NC(=O)[C@H](CCCN=C(N)N)NC(=O)[C@H](CCCN=C(N)N)NC(=O)[C@H](CCCN=C(N)N)NC(=O)[C@@H](NC(=O)[C@@H](N)C(C)C)[C@@H](C)CC)C(=O)N[C@@H](CC(C)C)C(=O)N[C@@H](C)C(=O)N[C@@H](C)C(=O)N[C@H](C(=O)N[C@H](C(N)=O)C(C)C)C(C)C [VIRRRRILAAVV] | MIC (Candida albicans): 95.7 µM (≈ 136 µg/mL); MIC [13]: ≥ 176 µM; MIC [14]: ≥ 95.7 µM; MIC [15]: ≥ 95.7 µM
7 | ≥ 512 µM | > 512 µM | > 512 µM | > 512 µM | > 512 µM | – | CC(C)C[C@H](NC(=O)[C@H](C)NC(=O)[C@@H](NC(=O)[C@H](CCCCN)NC(=O)[C@H](C)NC(=O)[C@H](CCCN=C(N)N)NC(=O)[C@H](CCCCN)NC(=O)[C@H](C)NC(=O)[C@H](C)NC(=O)CN)[C@@H](C)O)C(N)=O [GAAKRAKTAL] | MIC [1]: > 512 µM; MIC [3]: > 512 µM; MIC [6]: > 512 µM
8 | – | 32 µM (≈ 96.2 µg/mL) | – | 64 µM (≈ 192 µg/mL) | 32 µM (≈ 96.2 µg/mL) | 16 µM (≈ 48.1 µg/mL) | CC[C@H](C)[C@H](NC(=O)[C@H](CCCCN)NC(=O)[C@H](CCCCN)NC(=O)[C@H](CC(C)C)NC(=O)[C@@H](NC(=O)[C@H](CCCCN)NC(=O)CNC(=O)[C@@H](NC(=O)[C@H](CCCCN)NC(=O)[C@H](CCCCN)NC(=O)[C@H](CC(C)C)NC(=O)[C@H](CCCN=C(N)N)NC(=O)[C@H](CCCCN)NC(=O)[C@H](CCCN=C(N)N)NC(=O)[C@@H](NC(=O)[C@H](CCCCN)NC(=O)[C@H](CCCCN)NC(=O)[C@H](CCCN=C(N)N)NC(=O)[C@H](CC(C)C)NC(=O)[C@H](CCCN=C(N)N)NC(=O)[C@H](CCCN=C(N)N)NC(=O)[C@H](Cc1ccccc1)NC(=O)[C@H](CCCN=C(N)N)NC(=O)CN)[C@@H](C)O)[C@@H](C)CC)C(C)C)C(N)=O [GRFRRLRKKTRKRLKKIGKVLKKI] | MIC [11]: ≥ 128 µM; MIC [12]: 32 µM (≈ 96.2 µg/mL)
9 | 16 µM (≈ 19.3 µg/mL) | > 128 µM | – | – | – | – | CC[C@H](C)[C@H](NC(=O)CN)C(=O)N[C@H](C(=O)N[C@@H](C)C(=O)NCC(=O)N[C@H](C(=O)N[C@H](C(=O)N[C@@H](CCCCN)C(=O)N[C@H](C(=O)N[C@H](C(=O)N[C@@H](CCCCN)C(=O)N[C@@H](C)C(N)=O)[C@@H](C)CC)[C@@H](C)CC)[C@@H](C)CC)[C@@H](C)CC)[C@@H](C)CC [GIIAGIIKIIKA] | –
10 | 2 µM (≈ 3.13 µg/mL) | 4 µM (≈ 6.26 µg/mL) | 4 µM (≈ 6.26 µg/mL) | 8 µM (≈ 12.5 µg/mL) | – | – | CC[C@H](C)[C@H](NC(=O)[C@H](CCCCN)NC(=O)[C@H](CCCCN)NC(=O)[C@H](C)NC(=O)[C@@H](NC(=O)[C@H](C)NC(=O)[C@H](CC(C)C)NC(=O)[C@H](CC(C)C)NC(=O)[C@H](CCCCN)NC(=O)[C@H](CCCCN)NC(=O)[C@H](CC(C)C)NC(=O)[C@H](CC(N)=O)NC(=O)[C@@H](N)CC(C)C)C(C)C)C(=O)N[C@@H](CC(C)C)C(N)=O [LNLKKLLAVAKKIL] | MIC [16]: 4 µM (≈ 6.26 µg/mL)
11 | – | – | – | 16.2 µM (≈ 23 µg/mL) | – | 7.74 µM (≈ 11 µg/mL) | CC[C@H](C)[C@H](NC(=O)[C@@H](NC(=O)[C@H](C)NC(=O)[C@@H](NC(=O)[C@H](C)NC(=O)[C@@H](N)CCCN=C(N)N)C(C)C)C(C)C)C(=O)N[C@H](C(=O)N[C@@H](CCCN=C(N)N)C(=O)N[C@@H](CC(C)C)C(=O)N[C@@H](CCCN=C(N)N)C(=O)N[C@@H](CCCN=C(N)N)C(=O)N[C@H](C(N)=O)C(C)C)[C@@H](C)CC [RAVAVIIRLRRV] | MIC (Candida albicans): 4.22 µM (≈ 6 µg/mL); MIC [13]: 16.2 µM (≈ 23 µg/mL); MIC [14]: 7.74 µM (≈ 11 µg/mL); MIC [15]: 4.22 µM (≈ 6 µg/mL)
12 | – | 4 µM (≈ 7.02 µg/mL) | – | 16 µM (≈ 28.1 µg/mL) | 8 µM (≈ 14 µg/mL) | 4 µM (≈ 7.02 µg/mL) | CC(C)C[C@H](NC(=O)[C@H](CCCN=C(N)N)NC(=O)[C@H](CCCCN)NC(=O)[C@H](Cc1c[nH]c2ccccc12)NC(=O)[C@@H](NC(=O)[C@H](CCCCN)NC(=O)[C@H](CCCCN)NC(=O)[C@H](Cc1c[nH]c2ccccc12)NC(=O)[C@H](CC(C)C)NC(=O)[C@H](CCCN=C(N)N)NC(=O)[C@@H](N)CCCN=C(N)N)[C@@H](C)O)C(=O)N[C@@H](Cc1c[nH]c2ccccc12)C(N)=O [RRLWKKTWKRLW] | MIC [11]: 8 µM (≈ 14 µg/mL); MIC [12]: 8 µM (≈ 14 µg/mL)
13 | 16 µM (≈ 23.2 µg/mL) | 8 µM (≈ 11.6 µg/mL) | 32 µM (≈ 46.4 µg/mL) | 4 µM (≈ 5.8 µg/mL) | – | – | CC[C@H](C)[C@H](NC(=O)[C@H](CCCCN)NC(=O)[C@H](C)NC(=O)[C@H](C)NC(=O)[C@@H](NC(=O)[C@H](C)NC(=O)[C@H](CC(C)C)NC(=O)[C@H](CC(C)C)NC(=O)[C@H](C)NC(=O)[C@H](CCCCN)NC(=O)[C@H](CC(C)C)NC(=O)[C@H](CC(N)=O)NC(=O)[C@@H](N)CC(C)C)C(C)C)C(=O)N[C@@H](CC(C)C)C(N)=O [LNLKALLAVAAKIL] | MIC [16]: 32 µM (≈ 46.4 µg/mL)
14 | – | – | – | – | – | – | CC[C@H](C)[C@H](N)C(=O)N[C@@H](Cc1c[nH]c2ccccc12)C(=O)N[C@@H](CC(C)C)C(=O)N[C@H](C(=O)N[C@@H](C)C(=O)N[C@@H](CC(C)C)C(=O)N[C@@H](CCCCN)C(=O)N[C@@H](Cc1ccccc1)C(=O)N[C@@H](CC(C)C)C(=O)NCC(=O)N[C@@H](CCCCN)C(=O)N[C@@H](Cc1cnc[nH]1)C(=O)N[C@@H](C)C(=O)N[C@@H](C)C(=O)N[C@@H](CCCCN)C(=O)N[C@@H](Cc1cnc[nH]1)C(=O)N[C@@H](CC(C)C)C(=O)N[C@@H](C)C(=O)N[C@@H](CCCCN)C(=O)N[C@@H](CCC(N)=O)C(=O)N[C@@H](CCC(N)=O)C(=O)N[C@@H](CC(C)C)C(=O)N[C@@H](CO)C(=O)N[C@@H](CCCCN)C(=O)N[C@@H](CC(C)C)C(=O)O)[C@@H](C)O [IWLTALKFLGKHAAKHLAKQQLSKL] | MIC (Bacillus subtilis 168): 6.25 µM (≈ 17.8 µg/mL); MIC (Escherichia coli K-12): 25 µM (≈ 71.1 µg/mL); MIC [9]: 25 µM (≈ 71.1 µg/mL); MIC [10]: 3.1 µM (≈ 8.82 µg/mL)
